Laboratory results taken from EPA's ToxRefDB 2.

Assays:
[1] = test system: dog; settings: Chronic toxicity; beagle; Oral; Feed; dose end: 52 week; group: systemic; systemic / clinical chemistry / albumin / albumin + systemic / clinical chemistry / cholesterol / cholesterol + systemic / clinical …
[2] = test system: rat; settings: Combined chronic toxicity/carcinogenicity, sprague dawley, Oral, Feed, dose end: 104 week, group: systemic
[3] = test system: rat; settings: Multigenerational reproductive toxicity study, sprague dawley, Oral, Feed, dose end: 2 generation
[4] = test system: mouse; settings: Carcinogenicity; cd1; Oral; Feed; dose end: 97 week; group: systemic; systemic / in life observation / body weight / body weight + systemic / in life observation / body weight / body weight gain + systemic / …
[5] = test system: dog; settings: Subchronic oral toxicity in nonrodent, beagle, Feed, dose end: 90 day, group: systemic, systemic / clinical chemistry / albumin / albumin + systemic / clinical chemistry / calcium / calcium + systemic / clinical chemistry / …
[6] = test system: rat; settings: Prenatal developmental toxicity study, sprague dawley, Oral, Gavage/Intubation, dose end: 15 GD
[7] = test system: mouse; settings: Sub-acute repeat dose toxicity, b6c3f1, Oral, Gavage/Intubation, dose end: 14 day, group: systemic
[8] = test system: rat; settings: Sub-acute repeat dose toxicity, fischer, Oral, Gavage/Intubation, dose end: 14 day, group: systemic
[9] = test system: rat; settings: Carcinogenicity, fischer, Oral, Gavage/Intubation, dose end: 103 week, group: systemic
[10] = test system: rat; settings: Subchronic oral toxicity in rodents, fischer, Gavage/Intubation, dose end: 13 week, group: systemic
[11] = test system: mouse; settings: Subchronic oral toxicity in rodents, b6c3f1, Gavage/Intubation, dose end: 13 week, group: systemic
[12] = test system: mouse; settings: Carcinogenicity, b6c3f1, Oral, Gavage/Intubation, dose end: 103 week, group: systemic
[13] = systemic / hematology / erythrocyte (rbc) count differential / erythrocyte (rbc) + systemic / hematology / hematocrit (hct) / hematocrit (…
[14] = group: offspring, systemic / in life observation / body weight / offspring (pup) weight + systemic / in life observation / body weight / offspring (pup) …
[15] = group: parental, systemic / in life observation / body weight / body weight gain
[16] = group: parental, systemic / in life observation / body weight / body weight gain + systemic / in life observation / body weight / body weight + systemic / in…
[17] = group: developmental, developmental / developmental malformation / bone / incomplete ossification
[18] = group: developmental, developmental / developmental malformation / bone / incomplete ossification + developmental / developmental malformation / bone / short …
[19] = group: maternal, systemic / in life observation / body weight / body weight gain + systemic / in life observation / clinical signs / [other] + systemic / in …
[20] = systemic / in life observation / body weight / body weight
[21] = systemic / in life observation / body weight / body weight + systemic / in life observation / clinical signs / abnormal posture + systemic…
[22] = systemic / pathology microscopic / liver / vacuolization cytoplasmic + systemic / pathology microscopic / liver / degeneration
[23] = systemic / pathology microscopic / liver / vacuolization cytoplasmic + systemic / pathology microscopic / liver / degeneration + systemic / …
[24] = systemic / pathology microscopic / liver / necrosis + systemic / pathology microscopic / liver / vacuolization cytoplasmic + systemic / in …
[25] = systemic / pathology microscopic / liver / vacuolization cytoplasmic
[26] = systemic / pathology microscopic / liver / vacuolization cytoplasmic + systemic / in life observation / body weight / body weight + systemic…
[27] = systemic / pathology microscopic / liver / vacuolization cytoplasmic + systemic / in life observation / clinical signs / defecation (…

CN(C)C(=S)SSC(=S)N(C)C [Thiram]
LEL [1]: 0.84 mg/kg/day
LOAEL [1]: 0.84 mg/kg/day
NEL [1]: < 0.84 mg/kg/day
NOAEL [1]: < 0.84 mg/kg/day
LEL [2, 13]: 1.8 mg/kg/day
NEL [2, 13]: < 1.8 mg/kg/day
LOAEL ([2]; systemic / in life observation / body weight / body weight gain): 7.3 mg/kg/day
NOAEL ([2]; systemic / in life observation / body weight / body weight gain + systemic / clinical chemistry / glucose / glucose + systemic / hematology…): 1.5 mg/kg/day
LEL [3, 14]: 4.9 mg/kg/day
LOAEL [3, 14]: 4.9 mg/kg/day
NEL [3, 14]: 1.7 mg/kg/day
NOAEL [3, 14]: 1.7 mg/kg/day
LEL [3, 15]: 4.7 mg/kg/day
LOAEL [3, 15]: 4.7 mg/kg/day
NEL [3, 16]: 1.6 mg/kg/day
NOAEL [3, 16]: 1.6 mg/kg/day
LEL [4]: 24 mg/kg/day
LOAEL [4]: 24 mg/kg/day
NEL [4]: 2.5 mg/kg/day
NOAEL [4]: 2.5 mg/kg/day
LEL [5]: 2.26 mg/kg/day
LOAEL [5]: 7.01 mg/kg/day
NEL [5]: < 2.26 mg/kg/day
NOAEL [5]: 2.26 mg/kg/day
LEL [6, 17]: 7.5 mg/kg/day
NEL [6, 17]: < 7.5 mg/kg/day
LOAEL [6, 18]: 15 mg/kg/day
NOAEL [6, 18]: 7.5 mg/kg/day
LEL [6, 19]: 7.5 mg/kg/day
LOAEL [6, 19]: 7.5 mg/kg/day
NEL [6, 19]: < 7.5 mg/kg/day
NOAEL [6, 19]: < 7.5 mg/kg/day

OC[P+](CO)(CO)CO.[Cl-] [Tetrakis(hydroxymethyl)phosphonium chloride]
LEL [7, 20]: 18.8 mg/kg/day
LOAEL [7, 20]: 150 mg/kg/day
NEL [7, 20]: < 18.8 mg/kg/day
NOAEL ([7]; systemic / in life observation / body weight / body weight + systemic / in life observation / mortality / mortality): 75 mg/kg/day
LEL [8, 20]: 18.8 mg/kg/day
LOAEL [8, 20]: 37.5 mg/kg/day
NEL [8, 21]: 9.4 mg/kg/day
NOAEL [8, 21]: 18.8 mg/kg/day
LOAEL [9, 22]: 3.75 mg/kg/day
NOAEL [9, 22]: < 3.75 mg/kg/day
LEL [9, 23]: 3.75 mg/kg/day
NEL [9, 23]: < 3.75 mg/kg/day
NEL ([10]; systemic / in life observation / body weight / body weight + systemic / pathology microscopic / liver / necrosis + systemic / pathology …): 3.75 mg/kg/day
LOAEL [10, 24]: 30 mg/kg/day
NOAEL [10, 24]: 15 mg/kg/day
LEL [10, 25]: 7.5 mg/kg/day
LEL [11, 25]: 15 mg/kg/day
NEL [11, 26]: 4.5 mg/kg/day
NOAEL [11, 26]: 15 mg/kg/day
LOAEL ([11]; systemic / pathology microscopic / liver / vacuolization cytoplasmic + systemic / pathology microscopic / liver / necrosis): 45 mg/kg/day
LOAEL [12, 25]: 7.5 mg/kg/day
NOAEL [12, 25]: < 7.5 mg/kg/day
LEL [12, 27]: 7.5 mg/kg/day
NEL [12, 27]: < 7.5 mg/kg/day
